In US20240117005A1, “NOVEL BICYCLIC PEPTIDES” (THE COUNCIL OF THE QUEENSLAND INSTITUTE OF MEDICAL RESEARCH, priority 2021, published 2024):
Entries after “also recorded” stand apart in the source; their conditions may differ. No end group written: not given here. *: point of attachment. Myristyl = CCCCCCCCCCCCCC*

Legend:
Assay type in all cases: cell-based
[1] = biological target: T1, complex of PDL1 (unmodified) and IMPα1 (Homo sapiens, UniProt P52292); assay: DUOLINK proximity assay PDL1 (unmodified) and IMPα1, MDA-MB-231; conditions: for complex of PDL1 (unmodified) and IMPα1 (DUOLINK): MDA-MB-231
T1 construct: endogenous in cells; host or cells: MDA-MB-231
Method: (§1) To characterize unmodified PDL1 and IMPα1, MDA-MB-231 cells or CT26 cells were treated with vehicle control, DL-2-batch 1, DL-2-batch 2 or linear PDL1. Cells were permeabilised and were probed with the DUOLINK ligation assay. Cover slips were mounted on glass microscope slides with ProLong nucblue glass Antifade reagent (Life Technologies). PDL1 (unmodified) and IMPα1 DUOLINK Digital images were analysed using ImageJ software (ImageJ, NIH, Bethesda, MD, USA) and graphs represent the mean DOT Fluorescent Intensity in the nucleus or the cytoplasm compartments with significant differences calculated as per One-Way ANOVA comparison.
(A) CT26, 4T1 or MDA-MB-231 Cells were treated with inhibitors for 72 hours. Following inhibition, media was removed and replaced with WST-1 cell proliferation reagent. Absorbance was recorded at 450 nm after 1 hour. Data represent a single independent experiment performed in triplicate. Results are graphed as mean +/− standard error (SE). B) MDA-MB-231 or CT26 cancer cells were treated with vehicle control, DL-2-Batch 1 (original stock), DL-2-Batch 2 (current stock), DL-2-TBAB or linear PDL1. Cells were permeabilised and were probed with the DUOLINK ligation assay. Cover slips were mounted on glass microscope slides with ProLong nucblue glass Antifade reagent (Life Technologies). PDL1Ac and IMPα1 DUOLINK Digital images were analysed using ImageJ software (ImageJ, NIH, Bethesda, MD, USA) and graphs represent the mean DOT Fluorescent Intensity in the nucleus or the cytoplasm compartments with significant differences calculated as per one-way ANOVA comparison. […] PDL1-unmodified and IMPα1 DUOLINK digital images were analysed using ImageJ software (ImageJ, NIH, Bethesda, MD, USA) and graphs represent the mean DOT fluorescent intensity in the nucleus or the cytoplasm compartments with significant differences calculated as per one-way ANOVA comparison.
MDA-MB-231 and CT26 cells were treated with vehicle control, DL-2-Batch 1, DL-2-Batch 2, DL-2-TBAB (TBAB scaffold), DL-2-D (D-Isomer) or linear PDL1. […] PDL1 (unmodified) and IMPα1 and PDL1-PTM1 and IMPα1 DUOLINK digital images were analysed using ImageJ software (ImageJ, NIH, Bethesda, MD, USA) and graphs represent the mean DOT Fluorescent Intensity in the nucleus or the cytoplasm compartments with significant differences calculated as per One-Way ANOVA comparison. […]
MDA-MB-231 cells were treated with vehicle control (hollow nanoparticle), DL-2-NP at a concentration of 10 nM to 0.3 nM. […] PDL1 (unmodified) & IMPα1 DUOLINK digital images were analysed using ImageJ software (ImageJ, NIH, Bethesda, MD, USA) and graphs represent the mean DOT Fluorescent Intensity in the nucleus or the cytoplasm compartments with significant differences calculated as per One-WayANOVA comparison.

[2] = biological target: T2, complex of PDL1-PTM1 and IMPα1 (Mus musculus, UniProt P52293); assay: DUOLINK proximity assay PDL1-PTM1 and IMPα1, CT26
T2 construct: endogenous in cells; host or cells: CT26
Method: (A) CT26, 4T1 or MDA-MB-231 Cells were treated with inhibitors for 72 hours. Following inhibition, media was removed and replaced with WST-1 cell proliferation reagent. Absorbance was recorded at 450 nm after 1 hour. Data represent a single independent experiment performed in triplicate. Results are graphed as mean +/− standard error (SE). B) MDA-MB-231 or CT26 cancer cells were treated with vehicle control, DL-2-Batch 1 (original stock), DL-2-Batch 2 (current stock), DL-2-TBAB or linear PDL1. Cells were permeabilised and were probed with the DUOLINK ligation assay. Cover slips were mounted on glass microscope slides with ProLong nucblue glass Antifade reagent (Life Technologies). PDL1Ac and IMPα1 DUOLINK Digital images were analysed using ImageJ software (ImageJ, NIH, Bethesda, MD, USA) and graphs represent the mean DOT Fluorescent Intensity in the nucleus or the cytoplasm compartments with significant differences calculated as per one-way ANOVA comparison. […] PDL1-unmodified and IMPα1 DUOLINK digital images were analysed using ImageJ software (ImageJ, NIH, Bethesda, MD, USA) and graphs represent the mean DOT fluorescent intensity in the nucleus or the cytoplasm compartments with significant differences calculated as per one-way ANOVA comparison. […]

[3] = biological target: T3, complex of PDL1-PTM1 and IMPα1 (Homo sapiens, UniProt P52292); assay: DUOLINK proximity assay PDL1-PTM1 (PDL1-Ac) and IMPα1, MDA-MB-231; conditions: for complex of PDL1-PTM1 and IMPα1 (DUOLINK): MDA-MB-231
T3 construct: endogenous in cells; host or cells: MDA-MB-231
Method: MDA-MB-231 cells were treated with DL-2; with concentrations ranging from 10 μM to 0.00975 μM. MDA-MB-231 cells were treated with DL-2 or Control and were permeabilized and were probed with the DUOLINK ligation assay. Cover slips were mounted on glass microscope slides with Prolong nucleus glass Antifade reagent (Life Technologies). PDL1-Ac and IMPα1 DUOLINK Digital images were analyzed using ImageJ software (ImageJ, NIH, Bethesda, MD, USA) and graphs represent the mean DOT Fluorescent Intensity in the nucleus or the cytoplasm compartments with significant differences calculated as per Kruskal-Wallis one-way ANOVA.
MDA-MB-231 of were treated with vehicle control, DL-2-Batch 1, DL-2-Batch 2, or linear PDL1 peptide. Cells were permeabilised and were probed with the DUOLINK ligation assay. Cover slips were mounted on glass microscope slides with Prolong nucleus glass Antifade reagent (Life Technologies). PDL1Ac and IMPα1 DUOLINK Digital images were analysed using ImageJ software (ImageJ, NIH, Bethesda, MD, USA) and graphs represent the mean DOT Fluorescent Intensity in the nucleus or the cytoplasm compartments with significant differences calculated as per One-Way ANOVA comparison.
(§2) (A) CT26, 4T1 or MDA-MB-231 Cells were treated with inhibitors for 72 hours. Following inhibition, media was removed and replaced with WST-1 cell proliferation reagent. Absorbance was recorded at 450 nm after 1 hour. Data represent a single independent experiment performed in triplicate. Results are graphed as mean +/− standard error (SE). […] PDL1Ac and IMPα1 DUOLINK Digital images were analysed using ImageJ software (ImageJ, NIH, Bethesda, MD, USA) and graphs represent the mean DOT Fluorescent Intensity in the nucleus or the cytoplasm compartments with significant differences calculated as per one-way ANOVA comparison. […] PDL1-unmodified and IMPα1 DUOLINK digital images were analysed using ImageJ software (ImageJ, NIH, Bethesda, MD, USA) and graphs represent the mean DOT fluorescent intensity in the nucleus or the cytoplasm compartments with significant differences calculated as per one-way ANOVA comparison. […]

[4] = biological target: T4, complex of PDL1 (unmodified) and IMPα1 (Mus musculus, UniProt P52293); assay: DUOLINK proximity assay PDL1 (unmodified) and IMPα1, CT26
T4 construct: endogenous in cells; host or cells: CT26
Method: as §1
as §2, with “Following inhibition, media was removed and replaced with WST-1 cell proliferation reagent.” left out, “hour.” for “hour. Data represent a single independent experiment performed in triplicate. Results are graphed as mean +/− standard error (SE).”

| Molecule | complex of PDL1 (unmodified) and IMPα1 (DUOLINK) [1] | complex of PDL1 (unmodified) and IMPα1 (DUOLINK) ([1]; listed as linear PDL1 peptide) | complex of PDL1-PTM1 and IMPα1 (DUOLINK) [2] | complex of PDL1-PTM1 and IMPα1 (DUOLINK) [3] | complex of PDL1 (unmodified) and IMPα1 (DUOLINK) [4] | IC50 ([1]; MDA-MB-231, DUOLINK, read-out: IC50 for abrogating the PDL1 and IMPα1 complex) [µM] | IC50 ([3]; MDA-MB-231, 10 μM to 0.00975 μM) [µM] |
| --- | --- | --- | --- | --- | --- | --- | --- |
| LTFIFRLRKGRMMDVKK (Myristyl-LTFIFRLRKGRMMDVKK) [PDL1-L1, Myristyl- linear peptide, prototype] | unable to significantly impact the complex; also recorded: no change | unable to significantly inhibit this complex | no change | unable to significantly prevent the complex; also recorded: no change | unable to significantly impact the complex; also recorded: no change | – | – |
| CCCCCCCCCCCCCC(=O)NC(C)C(=O)NC1CSCc2cc3cc(c2)CSC[C@H](NC(=O)[C@H](Cc2ccccc2)NC(=O)[C@H](C(C)CC)NC(=O)[C@H](Cc2ccccc2)NC(=O)[C@H]([C@@H](C)O)NC(=O)C(CC(C)C)NC1=O)C(=O)N[C@@H](CCCNC(C)=N)C(=O)N[C@@H](CC(C)C)C(=O)N[C@@H](CCCNC(=N)N)C(=O)N[C@@H](CCCCN)C(=O)NCC(=O)N[C@@H](CCCNC(=N)N)C(=O)NC(C(=O)N[C@@H](CCSC)C(=O)NC(CCSC)C(=O)N[C@@H](CC(=O)O)C(=O)NC(C(=O)N[C@@H](CCCCN)C(=O)NC(CCCCN)C(=O)O)C(C)C)CSC3 (mixture of isomers) [DL-2] | able to abrogate the complex | – | able to successfully abrogate the complex | abrogate the complex of PDL1 and IMPα1 in a dose dependent manner; also recorded: able to abrogate the complex | able to abrogate the complex | 0.039 | 0.039 |
